The structures appear in SMILES notation. Structures can show the parent of a compound that is named as a salt. Where two headings read alike, the source gives them in different places.

The target in one experiment is LSD1 (Homo sapiens (Human), UniProt O60341). The experiment is described as follows: LSD1 enzyme activity detection (HTRF). The format is biochemical. As to conditions: read-out: Inhibition of enzymatic activity of LSD1 IC50. In general terms: In TR-FRET formats the signal depends on donor and acceptor labels being close together.
For another experiment, the system named is NCI-H1417 cells. Description: In vitro cell proliferation detection (CellTiter-Glo, 7 days). The format is cell-based. For orientation: In ATP-based viability assays light output follows the ATP content of the culture.
The mark [1] stands for this setting: Homo sapiens, 168 h, NCI-H1417 cells, 7 days, CellTiter-Glo, read-out: NCI-H1417 proliferation inhibition IC50.

As to `COc1ccc(-c2cnc(N3CCC(N)C(F)C3)c(C#N)c2-c2ccc(C#N)c(F)c2)cc1O` (stereo not shown) [Example 77, 2-(4-amino-3-fluoropiperidin-1-yl)-4-(4-cyano-3-fluorophenyl)-5-(3-hydroxy-4-methoxyphenyl) nicotinonitrile], the IC50 on LSD1 (HTRF, H3K4me1 substrate) was 0.0024 ± 0.0009 µM; in the experiment with NCI-H1417 cells (setting [1]), 2.19 nM.

Take `COc1ccc(-c2nc(N3CCC(N)CC3)cc(C#N)c2-c2ccc(C#N)c(F)c2)cc1O` [Example 274, 6-(4-aminopiperidin-1-yl)-3-(4-cyano-3-fluorophenyl)-2-(3-hydroxy-4-methoxyphenyl)pyridin-4-carbonitrile]: in the experiment with NCI-H1417 cells (setting [1]), the IC50 was > 1000 nM.

Regarding `COc1ccc(-c2nc(CN[C@@H]3C[C@H]3c3ccc(F)cc3)cc(C(=O)N3CCOCC3)n2)cc1O` [Example 241], the IC50 was determined as 0.0269 µM at LSD1 (HTRF, H3K4me1 substrate) and 12.6 nM with NCI-H1417 cells (setting [1]).

As to `CS(=O)(=O)N1CCN(C(=O)c2cc(CCN[C@@H]3C[C@H]3c3ccc(F)cc3)nc(-c3ccc(-n4cccn4)cc3)c2)CC1` [Example 255, (2-(4-(1H-pyrazol-1-yl)phenyl)-6-(2-(((1R,2S)-2-(4-fluorophenyl)cyclopropyl)amino)ethyl)pyridin-4-yl) (4-(methylsulfonyl)piperazin-1-yl)methanone], the IC50 at LSD1 (HTRF, H3K4me1 substrate) amounted to 0.172 µM; with NCI-H1417 cells (setting [1]) it was 29.1 nM.

For the compound `CS(=O)(=O)N1CCN(c2cc(CCCN[C@@H]3C[C@H]3c3ccc(F)cc3)nn(-c3ccc(C#N)cc3)c2=O)CC1` [Example 260, 4-(3-(3-((1R,2S)-2-(4-fluorophenyl)cyclopropyl)amino)-5-(4-(methylsulfonyl)piperazin-1-yl)-6-oxypyridazine-1 (6H)-yl)benzonitrile formate], the IC50 with NCI-H1417 cells (NCI-H1417 cells, 7 days, CellTiter-Glo, read-out: NCI-H1417 proliferation inhibition IC50) was 46.1 nM.

As for `COc1ccc(-c2cc(C#N)c(N3CCC(N)CC3)nc2-c2ccc(C#N)c(F)c2)cc1O` [Example 282, 2-(4-aminopiperidin-1-yl)-6-(4-cyano-3-fluorophenyl)-5-(3-hydroxy-4-methoxyphenyl)nicotinon itrile hydrochloride], the IC50 in the experiment with NCI-H1417 cells (setting [1]) was 136 nM.

As for `COc1ccc(Nc2c(O)cc(N3CCC(N)CC3)nc2-c2ccc(C#N)c(F)c2)cc1F` [Example 64, 4-(6-(4-aminopiperidin-1-yl)-3-(3-fluoro-4-methoxyphenyl)amino)-4-hydroxypyridin-2-yl)-2-flu orobenzonitrile hydrochloride], in the experiment with NCI-H1417 cells (setting [1]), the IC50 worked out at 344 nM.

On to `Cc1ccc(-c2c(-c3ccc(C#N)cc3)nc3c(N4CCC[C@@H](N)C4)nccn23)cc1` [Example 5, (R)-4-(8-(3-aminopiperidin-1-yl)-3-(p-tolyl)imidazo[1,2-a]pyrazin-2-yl)benzonitrile hydrochloride], for which, in the experiment on NCI-H1417 cells (Homo sapiens, NCI-H1417, 168 h, read-out: NCI-H1417 proliferation inhibition IC50(nM)), the IC50 was determined as 165 nM.

On to `COc1ccc(-c2c(-c3ccc(C#N)c(F)c3)nc(N3CCC(N)CC3)c3c2cnn3C)cc1O` [Example 285, 4-(7-(4-aminopiperidin-1-yl)-4-(3-hydroxy-4-methoxyphenyl)-1-methyl-1H-pyrazolo[3,4-c]pyridin-5-yl)-2-fluorobenzonitrile], for which the IC50 in the experiment on NCI-H1417 cells (setting [1]) came out at 2.16 nM.

As to `Cc1noc2cc(-c3c(OCc4ccccc4)cc(N4C5CCC4CC(N)C5)nc3-c3ccc(C#N)c(F)c3)c(F)cc12` (stereo not shown) [Example 88, 4-(6-(3-amino-8-azabicyclo [3.2.1]octane-8-yl)-4-(benzyloxy)-3-(5-fluoro-3-methylbenzo[d]isoxazol-6-yl)pyridin-2-yl)-2-fluorobenzonitrile], the IC50 on LSD1 (HTRF, H3K4me1 substrate) came to 0.566 µM.

For the compound `N#Cc1ccc(-c2nc(N3CCC(N)CC3)cc(O)c2-c2ccc3[nH]nc(Cl)c3c2)cc1F` [Example 20, hydrochloride], the IC50 at LSD1 worked out at 0.166 µM.

As to `COc1ccc(-c2cnc(N3C4CCCC3CC(N)C4)c(C#N)c2-c2ccc(C#N)c(F)c2)cc1O` (stereo not shown) [Example 75, 2-(3-amino-9-azabicyclo [3.3.1]nonan-9-yl)-4-(4-cyano-3-fluorophenyl)-5-(3-hydroxy-4-methoxyphenyl) nicotinonitrile], the IC50 at LSD1 (HTRF, H3K4me1 substrate) was found to be 0.5 µM.

For `COc1ccc(-c2cc(N3CCC(N)CC3)nc(-c3ccc(C#N)c(F)c3)c2OC)cc1F` [Example 102, 4-(6-(4-aminopiperidin-1-yl)-4-(3-fluoro-4-methoxyphenyl)-3-methoxypyridin-2-yl)-2-fluoroben zonitrile], the IC50 on LSD1 (HTRF, H3K4me1 substrate) turned out to be 0.712 µM.

The values above are taken from patent US20240216357A1 (SICHUAN HUIYU PHARMACEUTICAL CO., LTD., priority 2021, published 2024).
